# In article PMC9032385, “A2A Adenosine Receptor Antagonists: Are Triazolotriazine and Purine Scaffolds Interchangeable?” (Molecules, 2022):
# Experiments:
# Format in all cases: cell-based
# [1] = tested on: BV-2 murine microglial cells; assay: RT-PCR expression of inflammatory mediators in LPS-activated BV-2 cells
# Procedure: BV-2 cells were treated with 13 or ANR 94 (10 nM) and activated with 100 ng/mL LPS for 24 h. Total RNA was isolated, and proinflammatory cytokine and enzyme expressions were measured using RT-PCR (Figure 5).
# (§1) Cell Cultures and Treatments: BV-2 murine microglial cells (a gift from Prof. Elisabetta Blasi of the University of Modena and Reggio Emilia, Modena, Italy) were maintained at 37 °C and 5% CO2 in a humidified incubator and grown in DMEM supplemented with 10% (v/v) low-endotoxin fetal bovine serum (Euroclone—Milan, Italy), 2 mM L-glutamine, 50 U/mL penicillin, and 50 μg/mL streptomycin (Sigma-Aldrich–Merck, Milan, Italy). Cells were seeded at 50,000 cells/mL in 96-well tissue culture plates for the viability assay, in 6-well tissue culture plates for the Griess assay and RT-PCR assay. BV-2 cells were treated for 24 h with ANR 94 or 13 at different concentrations and then exposed to LPS (100 ng/mL; Sigma-Aldrich–Merck) for a further 24 h.
# Real-Time Polymerase Chain Reaction (PCR): At the end of the experiments, total RNA was extracted by BV-2 cells using RNeasy Mini Kit (QIAGEN GmbH, Hilden, Germany). RNA concentraion and quality were measured on a NanoVue Spectrophotometer (GE Healthcare, Milano, Italy). iScript cDNA Synthesis Kit (Bio-Rad, Hercules, CA, USA) was used to synthesize cDNA starting from the extracted RNA, following the supplier’s instructions. PCR was performed by adding 2.5 μL (12.5 ng) of cDNA, 5 μL SsoAdvanced Universal SYBR Green Supermix (Bio-Rad), and 0.5 μL (500 nM) of each primer (Table 2) to a PCR tube. cDNA amplification was started at 95 °C for 30 s to activate the polymerase, followed by 40 cycles of 5 s at 95 °C and 30 s at 60 °C. Normalized expression levels were calculated relative to the control cells according to the 2^−ΔΔCT method.
# [2] = tested on: BV-2 murine microglial cells; assay: NO production (Griess assay) in LPS-activated BV-2 cells; settings: then 100 ng/mL LPS for 24 h
# Procedure: To determine the effects of 13 on LPS-induced inflammatory mediators, we initially evaluated the production of NO. BV-2 cells were treated with different concentrations of 13, then, were exposed to 100 ng/mL LPS for 24 h, and the release of NO in the culture medium was measured by Griess assay (Figure 4B).
# Cell Cultures and Treatments: BV-2 murine microglial cells (a gift from Prof. Elisabetta Blasi of the University of Modena and Reggio Emilia, Modena, Italy) were maintained at 37 °C and 5% CO2 in a humidified incubator and grown in DMEM supplemented with 10% (v/v) low-endotoxin fetal bovine serum (Euroclone—Milan, Italy), 2 mM L-glutamine, 50 U/mL penicillin, and 50 μg/mL streptomycin (Sigma-Aldrich–Merck, Milan, Italy). […]
# Measurement of NO Production: The amount of nitrite accumulation in the culture medium of BV-2 cells was measured using Griess reagent. […] The NO concentration was evaluated by measuring the absorbance at 540 nm with a 96-well microplate spectrophotometer (VICTOR3 V Multilabel Counter; PerkinElmer). Concentration of nitrites released in the medium was determined from the standard curve generated with known concentrations of sodium nitrite. Results are expressed as mean concentration of nitrites (μM) ± SEM, from three different samples.
# [3] = tested on: BV-2 murine microglial cells; assay: MTT viability assay in BV-2 cells; settings: 24 h, 50–5000 nM, up to 5 μM
# Procedure: First of all, we verified the potential cytotoxicity of 13 in our cell model system. BV-2 cells were treated with increasing concentrations of the compound for 24 h and cell viability was evaluated by MTT assay (Figure 4A).
# as §1
# MTT Viability Assay: MTT assay was performed to quantify the viability of BV-2 cells as previously reported. […] The absorbance was measured at 595 nm using a microplate spectrophotometer (VICTOR3 V Multilabel Counter; PerkinElmer, Wellesley, MA, USA). Data are expressed as a percentage of the control cells, which is considered 100% cell viability.
# [4] = 10 nM for 24 h, then 100 ng/mL LPS 24 h
smiles,measurement,setting,value
"CCn1c(-c2ccco2)nc2c(N)nc(NCCc3ccc(O)cc3)nc21 [compound 13, 4-(2-((6-Amino-9-ethyl-8-(furan-2-yl)-9H-purin-2-yl)amino)ethyl)phenol]",IL-10 mRNA expression,[1]; 10 nM before 100 ng/mL LPS 24 h,maintained IL-10 expression to a level comparable to the control cells
same,COX-2 mRNA expression vs LPS,[1]; [4],significantly reduced the expression
same,IL-1β mRNA expression vs LPS,[1]; [4],significantly reduced the expression
same,IL-6 mRNA expression vs LPS,[1]; [4],significantly reduced the expression
same,iNOS mRNA expression vs LPS,[1]; [4],significantly reduced the expression
same,NLRP3 mRNA expression vs LPS,"[1]; 10 nM pre-treatment, 100 ng/mL LPS 24 h",significantly reduced
same,NO level in culture medium vs LPS treated cells,[2]; 1 nM compound,significantly reduced the NO level
same,NO level in culture medium vs LPS treated cells,[2]; 10 nM compound,significantly reduced the NO level
same,"cytotoxicity (cell viability, MTT)",[3],did not show any cytotoxicity
